Source: patent publication US12397056B2, “System for inducing sonoporation of a drug into cancer cells and method thereof” (Freedom Waves S.R.L, priority 2018, dated 2025)

Key:
Assay type in all cases: cell-based
[1] = system: MDA-MB-231: estrogen independent human breast adenocarcinoma; assay: Cell death of MDA-MB-231 cells after drug with or without pLINFU sonoporation
Method: (§1) The system of the present invention was tested in vitro using two cellular lines of human breast cancer and one cellular line of human pancreatic adenocarcinoma. In particular the following cellular lines were employed: • MCF-7: human breast ductal carcinoma; • MDA-MB-231: estrogen independent human breast adenocarcinoma; • MiaPaCa-2: human pancreatic adenocarcinoma.
(§2) For each combination the percentage of cell death was measured in three main experimental conditions: • administration of the drug (hereinafter named “NO-US” condition); • administration of the drug and simultaneous administration of non focalized pulsed low-intensity ultrasound with a frequency of 1 MHz and a period of 1 second, said drug being administered in a unique dose; • 1 administration of non focalized pulsed low-intensity ultrasound with a frequency of 1 MHz and a period of 1 second, followed by administration of the drug; and • administration of the drug and simultaneous administration of non focalized pulsed low-intensity ultrasound with a frequency of 1 MHz and a period of 1 second, said drug being administered in two doses of equal concentration (hereinafter termed “US-DC” condition).
(§3) All the experimental conditions, other than NO-US, were replicated for different values of duty cycle and each experimental condition were replicated for three different total concentrations of drugs. Several operation times were also tested for each cellular lines and for each type of drug.

[2] = system: MiaPaCa-2: human pancreatic adenocarcinoma; assay: Cell death of MiaPaCa-2 cells after drug with or without pLINFU sonoporation; conditions: MiaPaCa2
Method: as §1, §2, §3

[3] = system: MCF-7: human breast ductal carcinoma; assay: Cell death of MCF-7 cells after drug with or without pLINFU sonoporation
Method: as §1, §2, §3

[4] = total concentration 0.5 μM, NO-US (no ultrasound)
[5] = total concentration 0.5 μM, US-DC = 9%
[6] = total concentration 0.5 μM, US-DC = 9% (pLINFU 1 MHz, 20 s + 20 s)
[7] = total concentration 0.5 μM, US-DC = 12%
[8] = total concentration 0.5 μM, US-DC = 12% (pLINFU 1 MHz, 20 s + 20 s)
[9] = total concentration 10 μM, NO-US (no ultrasound)
[10] = total concentration 10 μM, US-DC = 9%
[11] = total concentration 10 μM, US-DC = 9% (pLINFU 1 MHz, 20 s + 20 s)
[12] = total concentration 10 μM, US-DC = 12%
[13] = total concentration 10 μM, US-DC = 12% (pLINFU 1 MHz, 20 s + 20 s)
[14] = total concentration 50 μM, NO-US (no ultrasound)
[15] = total concentration 50 μM, US-DC = 9%
[16] = total concentration 50 μM, US-DC = 9% (pLINFU 1 MHz, 20 s + 20 s)
[17] = total concentration 50 μM, US-DC = 12%
[18] = total concentration 50 μM, US-DC = 12% (pLINFU 1 MHz, 20 s + 20 s)
[19] = total concentration 100 μg/ml, NO-US (no ultrasound)
[20] = total concentration 100 μg/ml, US-DC = 9%
[21] = total concentration 100 μg/ml, US-DC = 9% (pLINFU 1 MHz, 20 s + 20 s)
[22] = total concentration 100 μg/ml, US-DC = 12%
[23] = total concentration 100 μg/ml, US-DC = 12% (pLINFU 1 MHz, 20 s + 20 s)
[24] = total concentration 500 μg/ml, NO-US (no ultrasound)
[25] = total concentration 500 μg/ml, US-DC = 9%
[26] = total concentration 500 μg/ml, US-DC = 9% (pLINFU 1 MHz, 20 s + 20 s)
[27] = total concentration 500 μg/ml, US-DC = 12%
[28] = total concentration 500 μg/ml, US-DC = 12% (pLINFU 1 MHz, 20 s + 20 s)
[29] = total concentration 1000 μg/ml, US-DC = 9%
[30] = total concentration 1000 μg/ml, US-DC = 9% (pLINFU 1 MHz, 20 s + 20 s)
[31] = total concentration 1000 μg/ml, US-DC = 12%

## CC(=O)O[C@H]1C(=O)[C@@]2(C)[C@H]([C@H](OC(=O)c3ccccc3)[C@]3(O)C[C@H](OC(=O)[C@H](O)[C@@H](NC(=O)c4ccccc4)c4ccccc4)C(C)=C1C3(C)C)[C@]1(OC(C)=O)CO[C@@H]1C[C@@H]2O [Paclitaxel]
[1]; [4]
  Cell Death %: 6.4%
[1]; [5]
  Increasing % vs NO-US: +76.6%
[1]; [6]
  Cell Death %: 11.3%
[1]; [7]
  Increasing % vs NO-US: −7.8%
[1]; [8]
  Cell Death %: 5.9%
[1]; [9]
  Cell Death %: 6.4%
[1]; [10]
  Increasing % vs NO-US: +128.4%
[1]; [11]
  Cell Death %: 14.7%
[1]; [12]
  Increasing % vs NO-US: +15%
[1]; [13]
  Cell Death %: 7.4%
[1]; [14]
  Cell Death %: 7.9%
[1]; [15]
  Increasing % vs NO-US: +221.9%
[1]; [16]
  Cell Death %: 25.5%
[1]; [17]
  Increasing % vs NO-US: +55.3%
[1]; [18]
  Cell Death %: 12.3%
[2]; [4]
  Cell Death %: 45.5%
[2]; total concentration 0.5 μM, US-DC = 1%
  Increasing % vs NO-US: 40.1%
[2]; total concentration 0.5 μM, US-DC = 1% (pLINFU 1 MHz, 20 s + 20 s)
  Cell Death %: 22.7%
[2]; [7]
  Increasing % vs NO-US: 17.1%
[2]; [8]
  Cell Death %: 12.7%
[2]; [9]
  Cell Death %: 65.3%
[2]; total concentration 10 μM, US-DC = 1%
  Increasing % vs NO-US: +22.7%
[2]; total concentration 10 μM, US-DC = 1% (pLINFU 1 MHz, 20 s + 20 s)
  Cell Death %: 12.8%
[2]; [12]
  Increasing % vs NO-US: +12.7%
[2]; [13]
  Cell Death %: 9.2%
[2]; [14]
  Cell Death %: 80.2%
[2]; total concentration 50 μM, US-DC = 1%
  Increasing % vs NO-US: +12.8%
[2]; total concentration 50 μM, US-DC = 1% (pLINFU 1 MHz, 20 s + 20 s)
  Cell Death %: 90.5%
[2]; [17]
  Increasing % vs NO-US: +9.2%
[2]; [18]
  Cell Death %: 87.6%
[3]; [4]
  Cell Death %: 1.0%
[3]; [5]
  Increasing % vs NO-US: +807.5%
[3]; [6]
  Cell Death %: 9.1%
[3]; [7]
  Increasing % vs NO-US: +242.5%
[3]; [8]
  Cell Death %: 3.4%
[3]; [9]
  Cell Death %: 4.1%
[3]; [10]
  Increasing % vs NO-US: +484.7%
[3]; [11]
  Cell Death %: 24%
[3]; [12]
  Increasing % vs NO-US: +221.6%
[3]; [13]
  Cell Death %: 13.2%
[3]; [14]
  Cell Death %: 7.2%
[3]; [15]
  Increasing % vs NO-US: +354.2%
[3]; [16]
  Cell Death %: 32.7%
[3]; [17]
  Increasing % vs NO-US: +147.3%
[3]; [18]
  Cell Death %: 17.8%

## COc1cccc2c1C(=O)c1c(O)c3c(c(O)c1C2=O)C[C@@](O)(C(=O)CO)C[C@@H]3O[C@H]1C[C@H](N)[C@H](O)[C@H](C)O1 [Doxorubicin]
[1]; [19]
  Cell Death %: 10.9%
[1]; [20]
  Increasing % vs NO-US: +116%
[1]; [21]
  Cell Death %: 23.5%
[1]; [22]
  Increasing % vs NO-US: +11.8%
[1]; [23]
  Cell Death %: 12%
[1]; [24]
  Cell Death %: 22.8%
[1]; [25]
  Increasing % vs NO-US: +70.5%
[1]; [26]
  Cell Death %: 38.8%
[1]; [27]
  Increasing % vs NO-US: +18.4%
[1]; [28]
  Cell Death %: 27%
[1]; [29]
  Increasing % vs NO-US: +11.1%
[1]; [30]
  Cell Death %: 60.5%
[1]; [31]
  Increasing % vs NO-US: +0.3%
[3]; [19]
  Cell Death %: 17.1%
[3]; [20]
  Increasing % vs NO-US: +74.4%
[3]; [21]
  Cell Death %: 29.8%
[3]; [22]
  Increasing % vs NO-US: +64.9%
[3]; [23]
  Cell Death %: 28.2%
[3]; [24]
  Cell Death %: 23.3%
[3]; [25]
  Increasing % vs NO-US: +102.5%
[3]; [26]
  Cell Death %: 47.2%
[3]; [27]
  Increasing % vs NO-US: +114.2%
[3]; [28]
  Cell Death %: 49.9%
[3]; total concentration 1000 μg/ml, NO-US (no ultrasound)
  Cell Death %: 59%
[3]; [29]
  Increasing % vs NO-US: +19.7%
[3]; [30]
  Cell Death %: 70.6%^
[3]; [31]
  Increasing % vs NO-US: +39%
[3]; total concentration 1000 μg/ml, US-DC = 12% (pLINFU 1 MHz, 20 s + 20 s)
  Cell Death %: 82%

## CCc1c2c(nc3ccc(OC(=O)N4CCC(N5CCCCC5)CC4)cc13)-c1cc3c(c(=O)n1C2)COC(=O)[C@]3(O)CC [Irinotecan]
[2]; total concentration 0.05 μM, NO-US (no ultrasound)
  Cell Death %: 11.5%
[2]; total concentration 0.05 μM, US-DC = 1%
  Increasing % vs NO-US: +120.8%
[2]; total concentration 0.05 μM, US-DC = 1% (pLINFU 1 MHz, 20 s + 20 s)
  Cell Death %: 25.4%
[2]; total concentration 0.05 μM, US-DC = 12%
  Increasing % vs NO-US: +60.6%
[2]; total concentration 0.05 μM, US-DC = 12% (pLINFU 1 MHz, 20 s + 20 s)
  Cell Death %: 18.5%
[2]; total concentration 1 μM, NO-US (no ultrasound)
  Cell Death %: 21.1%
[2]; total concentration 1 μM, US-DC = 1%
  Increasing % vs NO-US: +62.9%
[2]; total concentration 1 μM, US-DC = 1% (pLINFU 1 MHz, 20 s + 20 s)
  Cell Death %: 34.3%
[2]; total concentration 1 μM, US-DC = 12%
  Increasing % vs NO-US: +42.5%
[2]; total concentration 1 μM, US-DC = 12% (pLINFU 1 MHz, 20 s + 20 s)
  Cell Death %: 30%
[2]; total concentration 50 μM (irinotecan series), NO-US (no ultrasound)
  Cell Death %: 56.7%
[2]; total concentration 50 μM (irinotecan series), US-DC = 1%
  Increasing % vs NO-US: +31.1%
[2]; total concentration 50 μM (irinotecan series), US-DC = 1% (pLINFU 1 MHz, 20 s + 20 s)
  Cell Death %: 74.3%
[2]; total concentration 50 μM (irinotecan series), US-DC = 12%
  Increasing % vs NO-US: +16.5%
[2]; total concentration 50 μM (irinotecan series), US-DC = 12% (pLINFU 1 MHz, 20 s + 20 s)
  Cell Death %: 66%
